Results from patent publication US10758534B2 (Vertex Pharmaceuticals Incorporated, priority 2014, dated 2020).

Biological target: T1, F508del (Homo sapiens, UniProt P13569, DEL508-508)
T1 construct: expressed in transfected cells
Assay: Protocol 2: FRET membrane potential optical assay (VIPR), identification of correction compounds
Assay type: cell-based
Settings: F508del CFTR modulator activity; compounds of Table 1; read-out: EC30
Outline: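 Correction of the F508del trafficking defect is scored as forskolin (10 μM)/genistein (20 μM)-stimulated Cl^− efflux in NIH3T3 mouse fibroblasts after a 16 hr, 37° C. compound exposure. Depolarization was followed optically using voltage-sensing FRET dyes.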

T1 sequence (P13569 with tags, fused parts or gaps DEL508-508): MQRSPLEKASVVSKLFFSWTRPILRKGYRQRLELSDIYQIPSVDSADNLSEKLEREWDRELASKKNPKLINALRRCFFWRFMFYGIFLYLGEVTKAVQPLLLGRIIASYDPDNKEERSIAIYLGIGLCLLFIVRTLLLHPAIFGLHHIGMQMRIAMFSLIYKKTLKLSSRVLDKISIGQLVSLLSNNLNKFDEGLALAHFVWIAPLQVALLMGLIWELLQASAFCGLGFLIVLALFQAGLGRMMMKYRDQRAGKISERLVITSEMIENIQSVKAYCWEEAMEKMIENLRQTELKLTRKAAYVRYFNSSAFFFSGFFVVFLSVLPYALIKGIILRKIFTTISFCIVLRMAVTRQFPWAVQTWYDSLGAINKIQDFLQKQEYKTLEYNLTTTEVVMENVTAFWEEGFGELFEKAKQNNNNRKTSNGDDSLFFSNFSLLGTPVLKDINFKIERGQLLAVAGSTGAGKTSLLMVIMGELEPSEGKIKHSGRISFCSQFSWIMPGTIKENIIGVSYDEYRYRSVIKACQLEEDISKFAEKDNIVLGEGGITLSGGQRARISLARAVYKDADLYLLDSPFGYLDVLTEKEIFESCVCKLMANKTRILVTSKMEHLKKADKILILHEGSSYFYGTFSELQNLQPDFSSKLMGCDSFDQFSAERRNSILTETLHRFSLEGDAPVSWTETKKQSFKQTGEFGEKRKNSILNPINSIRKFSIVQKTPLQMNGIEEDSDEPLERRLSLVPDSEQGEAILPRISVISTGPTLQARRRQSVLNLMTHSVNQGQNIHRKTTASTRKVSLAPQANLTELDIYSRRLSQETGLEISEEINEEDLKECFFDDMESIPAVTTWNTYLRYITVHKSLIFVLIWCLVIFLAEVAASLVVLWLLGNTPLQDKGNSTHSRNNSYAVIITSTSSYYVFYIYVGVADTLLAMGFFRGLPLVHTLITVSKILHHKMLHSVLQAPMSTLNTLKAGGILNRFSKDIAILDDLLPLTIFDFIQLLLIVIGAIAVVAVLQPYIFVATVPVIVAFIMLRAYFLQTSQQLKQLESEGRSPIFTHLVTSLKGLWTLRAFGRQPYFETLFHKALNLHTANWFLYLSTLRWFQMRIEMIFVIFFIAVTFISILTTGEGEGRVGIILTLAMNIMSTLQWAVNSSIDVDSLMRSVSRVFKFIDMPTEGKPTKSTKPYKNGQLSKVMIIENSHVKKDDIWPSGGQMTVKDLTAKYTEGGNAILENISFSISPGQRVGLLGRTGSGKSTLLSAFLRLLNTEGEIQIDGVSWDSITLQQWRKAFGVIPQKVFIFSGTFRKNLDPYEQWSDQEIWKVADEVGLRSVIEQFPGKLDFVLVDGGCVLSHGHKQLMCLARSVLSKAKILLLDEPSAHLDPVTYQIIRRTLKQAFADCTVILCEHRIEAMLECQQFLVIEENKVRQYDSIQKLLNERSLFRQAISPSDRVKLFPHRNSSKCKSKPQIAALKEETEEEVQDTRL

SMILES	EC30 [µM]
COc1ncc(-c2ccc(C(=O)NS(=O)(=O)c3cccnc3N)c(N3C[C@@H](C)CC3(C)C)n2)cc1F [Compound 2628, N-[(2-amino-3-pyridyl)sulfonyl]-6-(5-fluoro-6-methoxy-3-pyridyl)-2-[(4S)-2,2,4-trimethylpyrrolidin-1-yl]pyridine-3-carboxamide]	< 3
CC(C)COc1ccccc1-c1ccc(C(=O)NS(=O)(=O)c2ccc[nH]c2=O)c(N2C[C@@H](C)CC2(C)C)n1 [Compound 2629, 6-(2-isobutoxyphenyl)-N-[(2-oxo-1H-pyridin-3-yl)sulfonyl]-2-[(4S)-2,2,4-trimethylpyrrolidin-1-yl]pyridine-3-carboxamide]	< 3
CC1CN(c2ncccc2C(=O)NS(=O)(=O)c2cccc(OCCC3CCCC3)n2)C(C)(C)C1 (stereo not drawn) [Compound 2630, N—[[6-(2-cyclopentylethoxy)-2-pyridyl]sulfonyl]-2-(2,2,4-trimethylpyrrolidin-1-yl)pyridine-3-carboxamide]	< 3
CC(C)COc1cc(F)cc(-c2ccc(C(=O)NS(=O)(=O)c3cccc(N)n3)c(N3CC(F)(F)CC3(C)C)n2)c1 [Compound 2631, N-[(6-amino-2-pyridyl)sulfonyl]-2-(4,4-difluoro-2,2-dimethyl-pyrrolidin-1-yl)-6-(3-fluoro-5-isobutoxy-phenyl)pyridine-3-carboxamide]	< 3
CC1CN(c2ncccc2C(=O)NS(=O)(=O)c2cccc(NCCc3ccccc3Cl)n2)C(C)(C)C1 (stereo not drawn) [Compound 2632, N—[[6-[2-(2-chlorophenyl)ethylamino]-2-pyridyl]sulfonyl]-2-(2,2,4-trimethylpyrrolidin-1-yl)pyridine-3-carboxamide]	< 3
C[C@@H]1CN(c2nc(C3=CCCN(C(=O)CC4CCCCC4)C3)ccc2C(=O)NS(=O)(=O)c2cccc(N)n2)C(C)(C)C1 [Compound 2633, N-[(6-amino-2-pyridyl)sulfonyl]-6-[1-(2-cyclohexylacetyl)-3,6-dihydro-2H-pyridin-5-yl]-2-[(4S)-2,2,4-trimethylpyrrolidin-1-yl]pyridine-3-carboxamide]	3 to 10
CC(C)COc1cc(F)cc(-c2ccc(C(=O)NS(=O)(=O)c3cccc(N)n3)c(N3C[C@@H](C)CC3(C)C)c2F)c1 [Compound 2634, N-[(6-amino-2-pyridyl)sulfonyl]-3-fluoro-4-(3-fluoro-5-isobutoxy-phenyl)-2-[(4S)-2,2,4-trimethylpyrrolidin-1-yl]benzamide]	< 3
CC(C)c1ccccc1-c1ccc(C(=O)NS(=O)(=O)c2ccc[nH]c2=O)c(N2C[C@@H](C)CC2(C)C)n1 [Compound 2635, 6-(2-isopropylphenyl)-N-[(2-oxo-1H-pyridin-3-yl)sulfonyl]-2-[(4S)-2,2,4-trimethylpyrrolidin-1-yl]pyridine-3-carboxamide]	< 3
C[C@@H]1CN(c2nc(-c3cccc4[nH]ccc34)ccc2C(=O)NS(=O)(=O)c2ccc[nH]c2=O)C(C)(C)C1 [Compound 2636, 6-(1H-indol-4-yl)-N-[(2-oxo-1H-pyridin-3-yl)sulfonyl]-2-[(4S)-2,2,4-trimethylpyrrolidin-1-yl]pyridine-3-carboxamide]	> 10
COc1ccccc1Oc1cccc(S(=O)(=O)NC(=O)c2cccnc2N2CC(C)CC2(C)C)n1 (stereo not drawn) [Compound 2637, N—[[6-(2-methoxyphenoxy)-2-pyridyl]sulfonyl]-2-(2,2,4-trimethylpyrrolidin-1-yl)pyridine-3-carboxamide]	< 3
Cc1cc(F)cc(-c2ccc(C(=O)NS(=O)(=O)c3cccc(N)n3)c(N3C[C@@H](C)CC3(C)C)n2)c1 [Compound 2638, N-[(6-amino-2-pyridyl)sulfonyl]-6-(3-fluoro-5-methyl-phenyl)-2-[(4S)-2,2,4-trimethylpyrrolidin-1-yl]pyridine-3-carboxamide]	< 3
CC1CN(c2ncccc2C(=O)NS(=O)(=O)c2cccc(Nc3ccccc3)n2)C(C)(C)C1 (stereo not drawn) [Compound 2639, N-[(6-anilino-2-pyridyl)sulfonyl]-2-(2,2,4-trimethylpyrrolidin-1-yl)pyridine-3-carboxamide]	< 3
CC1CN(c2ncccc2C(=O)NS(=O)(=O)c2cccc(NCc3cccc(F)c3F)n2)C(C)(C)C1 (stereo not drawn) [Compound 2640, N—[[6-[(2,3-difluorophenyl)methylamino]-2-pyridyl]sulfonyl]-2-(2,2,4-trimethylpyrrolidin-1-yl)pyridine-3-carboxamide]	< 3
CC1CN(c2ncccc2C(=O)NS(=O)(=O)c2cccc(N3CCC(C(F)(F)F)CC3)n2)C(C)(C)C1 (stereo not drawn) [Compound 2641, N—[[6-[4-(trifluoromethyl)-1-piperidyl]-2-pyridyl]sulfonyl]-2-(2,2,4-trimethylpyrrolidin-1-yl)pyridine-3-carboxamide]	< 3
CCOc1ccc(CCNc2cccc(S(=O)(=O)NC(=O)c3cccnc3N3CC(C)CC3(C)C)n2)cc1 (stereo not drawn) [Compound 2642, N—[[6-[2-(4-ethoxyphenyl)ethylamino]-2-pyridyl]sulfonyl]-2-(2,2,4-trimethylpyrrolidin-1-yl)pyridine-3-carboxamide]	< 3
Cc1ccc2cccc(Oc3cccc(S(=O)(=O)NC(=O)c4cccnc4N4CC(C)CC4(C)C)n3)c2n1 (stereo not drawn) [Compound 2643, N—[[6-[(2-methyl-8-quinolyl)oxy]-2-pyridyl]sulfonyl]-2-(2,2,4-trimethylpyrrolidin-1-yl)pyridine-3-carboxamide]	< 3
C[C@@H]1CN(c2nc(-c3ccc(C(F)F)cc3)ccc2C(=O)NS(=O)(=O)c2cccnc2N)C(C)(C)C1 [Compound 2644, N-[(2-amino-3-pyridyl)sulfonyl]-6-[4-(difluoromethyl)phenyl]-2-[(4S)-2,2,4-trimethylpyrrolidin-1-yl]pyridine-3-carboxamide]	< 3
COc1ccc(Cl)cc1COc1cccc(S(=O)(=O)NC(=O)c2cccnc2N2CC(C)CC2(C)C)n1 (stereo not drawn) [Compound 2645, N—[[6-[(5-chloro-2-methoxy-phenyl)methoxy]-2-pyridyl]sulfonyl]-2-(2,2,4-trimethylpyrrolidin-1-yl)pyridine-3-carboxamide]	< 3
COc1cc(-c2ccc(C(=O)NS(=O)(=O)c3cccnc3N)c(N3C[C@@H](C)CC3(C)C)n2)ccn1 [Compound 2646, N-[(2-amino-3-pyridyl)sulfonyl]-6-(2-methoxy-4-pyridyl)-2-[(4S)-2,2,4-trimethylpyrrolidin-1-yl]pyridine-3-carboxamide]	< 3
CC(C)CC/C=C/c1cnc(N2CC(C)CC2(C)C)c(C(=O)NS(=O)(=O)c2cccc(N)n2)c1 (stereo not drawn) [Compound 2647, N-[(6-amino-2-pyridyl)sulfonyl]-5-[(E)-5-methylhex-1-enyl]-2-(2,2,4-trimethylpyrrolidin-1-yl)pyridine-3-carboxamide]	< 3
CC(C)=CCOc1cccc(S(=O)(=O)NC(=O)c2cccnc2N2CC(C)CC2(C)C)n1 (stereo not drawn) [Compound 2648, N—[[6-(3-methylbut-2-enoxy)-2-pyridyl]sulfonyl]-2-(2,2,4-trimethylpyrrolidin-1-yl)pyridine-3-carboxamide]	< 3
CC1CN(c2ncc(-c3ccc(OC(F)(F)F)cc3)cc2C(=O)NS(=O)(=O)c2cccc(N)n2)C(C)(C)C1 (stereo not drawn) [Compound 2649, N-[(6-amino-2-pyridyl)sulfonyl]-5-[4-(trifluoromethoxy)phenyl]-2-(2,2,4-trimethylpyrrolidin-1-yl)pyridine-3-carboxamide]	< 3
C[C@@H]1CN(c2nc(C3=CCCN(C(=O)CC(C)(C)C)C3)ccc2C(=O)NS(=O)(=O)c2cccc(N)n2)C(C)(C)C1 [Compound 2650, N-[(6-amino-2-pyridyl)sulfonyl]-6-[1-(3,3-dimethylbutanoyl)-3,6-dihydro-2H-pyridin-5-yl]-2-[(4S)-2,2,4-trimethylpyrrolidin-1-yl]pyridine-3-carboxamide]	3 to 10
CCOc1ncc(-c2ccc(C(=O)NS(=O)(=O)c3cccnc3N)c(N3C[C@@H](C)CC3(C)C)n2)cc1C [Compound 2651, N-[(2-amino-3-pyridyl)sulfonyl]-6-(6-ethoxy-5-methyl-3-pyridyl)-2-[(4S)-2,2,4-trimethylpyrrolidin-1-yl]pyridine-3-carboxamide]	< 3
C[C@@H]1CN(c2nc(-c3cc(F)cc(F)c3)ccc2C(=O)NS(=O)(=O)c2ccc[nH]c2=O)C(C)(C)C1 [Compound 2652, 6-(3,5-difluorophenyl)-N-[(2-oxo-1H-pyridin-3-yl)sulfonyl]-2-[(4S)-2,2,4-trimethylpyrrolidin-1-yl]pyridine-3-carboxamide]	< 3
C[C@@H]1CN(c2nc(-c3ccc(F)cc3O)ccc2C(=O)NS(=O)(=O)c2cccnc2N)C(C)(C)C1 [Compound 2653, N-[(2-amino-3-pyridyl)sulfonyl]-6-(4-fluoro-2-hydroxy-phenyl)-2-[(4S)-2,2,4-trimethylpyrrolidin-1-yl]pyridine-3-carboxamide]	< 3
CC1CN(c2ncccc2C(=O)NS(=O)(=O)c2cccc(Oc3c(F)cc(F)cc3F)n2)C(C)(C)C1 (stereo not drawn) [Compound 2654, N—[[6-(2,4,6-trifluorophenoxy)-2-pyridyl]sulfonyl]-2-(2,2,4-trimethylpyrrolidin-1-yl)pyridine-3-carboxamide]	< 3
CC(C)COc1cc(F)cc(-c2ccc(C(=O)NS(=O)(=O)C3CCCNC3)c(N3C[C@@H](C)CC3(C)C)n2)c1 (stereo partly drawn) [Compound 2655, 6-(3-fluoro-5-isobutoxy-phenyl)-N-(3-piperidylsulfonyl)-2-[(4S)-2,2,4-trimethylpyrrolidin-1-yl]pyridine-3-carboxamide]	< 3
CC1CN(c2ncccc2C(=O)NS(=O)(=O)c2cccc(Nc3ccc(Cl)cn3)n2)C(C)(C)C1 (stereo not drawn) [Compound 2656, N—[[6-[(5-chloro-2-pyridyl)amino]-2-pyridyl]sulfonyl]-2-(2,2,4-trimethylpyrrolidin-1-yl)pyridine-3-carboxamide]	< 3
C[C@@H]1CN(c2nc(-c3cc4ccccc4n3C(=O)OC(C)(C)C)ccc2C(=O)NS(=O)(=O)c2cccnc2N)C(C)(C)C1 [Compound 2657, tert-butyl 2-[5-[(2-amino-3-pyridyl)sulfonylcarbamoyl]-6-[(4S)-2,2,4-trimethylpyrrolidin-1-yl]-2-pyridyl]indole-1-carboxylate]	3 to 10
